Assays:
[1] = system: malaria mosquito (Anopheles gambiae); test: Five-minute exposure bioassay, WHO Adult Mosquito Susceptibility Test Kit, treated filter paper; type: in vivo; settings: for KT 50 / KT 95 / % knock down after 10′ / % knock down after 15′ / % knock down after 20′ / % knock down after 25′ / % knock down after 30′ / % knock down after 45′ / % knock down after 60′ / % mortality 1 d: Table 80, filter paper (mg/m^2); for % mortality 1 d: mortality 24 hours post exposure; for % knock down after 5′: Table 80, technical sample on filter paper (mg/m^2)
Experimental: The bioassays were carried out using the WHO Adult Mosquito Susceptibility Test Kit, (WHO/VBC 81.805, 1981) with plastic cylinders (4.5 cm diameter, 12 cm height). All bioassays were done using preferably female sugar fed Anopheles gambiae mosquitoes. Knock down was recorded after at 5, 10, 15, 20, 25, 30, 45 and 60 minutes, when the mosquitoes were supplied with a 5% sugar water source for 24 hours. Mortality was recorded 24 hours post exposure. Each test consisted of three replicates from which the mean values were calculated. The insecticides (all technical grades) were applied as 2 ml acetone solutions onto filter papers (12 cm×15 cm).

[2] = system: tropical house mosquito Culex quinquefasciatus (adults, 3 days old); test: Efficacy of formulations on surfaces (glazed/unglazed tiles, plywood), ten 3 day old mosquitoes, 3 min exposure; type: in vivo
Experimental: The ingredients were diluted in acetone to give a concentration which corresponds to the desired quantity of a.i./m^2. A 1 ml quantity of the solution was applied by pipette onto the 15 cm×15 cm surfaces without treating the outer edge of 1 cm.
(§1) Ten 3 day old Culex quinquefasciatus mosquitoes were exposed to each treatment for 3 minutes under a perforated petri dish, and then a clean untreated white paper index card was moved between treated surface and petri dish. A water-soaked cotton pad was applied immediately after.
Each test consisted of three replicates (three batches of ten mosquitoes were exposed for three minutes to the same surface, each one hour later), of which the mean values are calculated.
The test insects were Culex quinquefasciatus (adults, 3 days old). The compositions were evaluated for their ability to provide effective knock down after 3, 9, 15, and 30 minutes, 1, 2, 3, 4 and 24 hours (mortality). The experiments were performed in triplicate on glazed tile, but not repeated on wood.
Test Insects are Culex quinquefasciatus (adults, 3 days old). The Application provides the technical compounds were dissolved in acetone and applied as 1 ml solutions onto glazed tiles (15 cm×15 cm). An evaluation is provided at knock down after 3, 9, 15, and 30 minutes, 1, 2, 3, 4 and 24 hours (mortality). There are 3 replicates.
Test Insects: Culex quinquefasciatus (adults, 3 days old)
Application: The technical compounds were dissolved in acetone and applied as 1 ml solutions onto glazed tiles (15 cm×15 cm).
Evaluation: Knock down after 3, 9, 15, and 30 minutes, 1, 2, 3, 4 and 24 hours (mortality) […]
Application: The active ingredients were applied as 1 ml acetone solutions onto glazed tiles (15 cm×15 cm) […]
as §1, with “For the mosquitoes, the USDA Petri Dish Method is used. Ten” for “Ten”, “are” for “were”, “dish” for “dish,”, “is” for “was”, “after. […]” for “after.”

## CC1(C)[C@H](C(=O)O[C@H](C#N)c2cccc(Oc3ccccc3)c2)[C@@H]1C=C(Br)Br [5 mg DTM]
[1]
  KT 50: >60 min
  KT 95: >60 min
  % knock down after 10′: 6%
  % knock down after 15′: 4%
  % knock down after 20′: 6%
  % knock down after 25′: 6%
  % knock down after 30′: 7%
  % knock down after 45′: 15%
  % knock down after 60′: 19%
  % mortality 1 d: 13%
  % knock down after 5′: 6%

## CNC(=O)Oc1cccc2c1OC(C)(C)O2 [10 mg Bendiocarb]
[1]
  KT 50: >60 min
  KT 95: >60 min
  % knock down after 10′: 2%
  % knock down after 15′: 2%
  % knock down after 20′: 27%
  % knock down after 25′: 2%
  % knock down after 30′: 2%
  % knock down after 45′: 2%
  % knock down after 60′: 2%
  % mortality 1 d: 9%
  % knock down after 5′: 2%

## CC1(C)[C@H](C(=O)O[C@H](C#N)c2cccc(Oc3ccccc3)c2)[C@@H]1C=C(Br)Br [40 mg DTM]
[1]
  KT 50: 10 min
  KT 95: 40 min
  % knock down after 10′: 53%
  % knock down after 15′: 66%
  % knock down after 20′: 76%
  % knock down after 25′: 92%
  % knock down after 30′: 97%
  % knock down after 45′: 100%
  % knock down after 60′: 100%
  % mortality 1 d: 83%
  % knock down after 5′: 22%

## CC1(C)C(C=C(Br)Br)C1C(=O)OC(C#N)c1cccc(Oc2ccccc2)c1 (stereo not shown) [20 mg DTM]
[1]
  KT 50: 21 min
  KT 95: >60 min
  % knock down after 10′: 23%
  % knock down after 15′: 39%
  % knock down after 20′: 45%
  % knock down after 25′: 52%
  % knock down after 30′: 66%
  % knock down after 45′: 79%
  % knock down after 60′: 86%
  % mortality 1 d: 75%
  % knock down after 5′: 9%

## CNC(=O)Oc1cccc2c1OC(C)(C)O2 [20 mg Bendiocarb]
[1]
  KT 50: >60 min
  KT 95: >60 min
  % knock down after 10′: 6%
  % knock down after 15′: 4%
  % knock down after 20′: 6%
  % knock down after 25′: 13%
  % knock down after 30′: 13%
  % knock down after 45′: 20%
  % knock down after 60′: 21%
  % mortality 1 d: 27%
  % knock down after 5′: 3%

## CC1(C)[C@H](C(=O)O[C@H](C#N)c2cccc(Oc3ccccc3)c2)[C@@H]1C=C(Br)Br [10 mg DTM]
[1]
  KT 50: >60 min
  KT 95: >60 min
  % knock down after 10′: 2%
  % knock down after 15′: 2%
  % knock down after 20′: 2%
  % knock down after 25′: 5%
  % knock down after 30′: 9%
  % knock down after 45′: 18%
  % knock down after 60′: 26%
  % mortality 1 d: 17%
  % knock down after 5′: 0%

## CNC(=O)Oc1cccc2c1OC(C)(C)O2 [40 mg bendiocarb]
[1]
  KT 50: 12 min
  KT 95: >60 min
  % knock down after 10′: 50%
  % knock down after 15′: 56%
  % knock down after 20′: 68%
  % knock down after 25′: 74%
  % knock down after 30′: 76%
  % knock down after 45′: 81%
  % knock down after 60′: 85%
  % mortality 1 d: 94%
  % knock down after 5′: 16%

## CNC(=O)Oc1cccc2c1OC(C)(C)O2 [5 mg Bendiocarb]
[1]
  KT 50: >60 min
  KT 95: >60 min
  % knock down after 10′: 6%
  % knock down after 15′: 6%
  % knock down after 20′: 6%
  % knock down after 25′: 6%
  % knock down after 30′: 6%
  % knock down after 45′: 6%
  % knock down after 60′: 6%
  % mortality 1 d: 12%
  % knock down after 5′: 6%

## CNC(=O)Oc1cccc2c1OC(C)(C)O2 [0.1% bendiocarb]
[2]; 3′, in acetone on glazed tiles, Table 84
  % KD and Mortality: 0%
[2]; 3′, solvent 2006-009114 (EC formulation), glazed tiles, Table 83
  % KD and Mortality: 10%
[2]; 3′, solvent Acetone + 0.05% citric acid, glazed tiles, Table 83
  % KD and Mortality: 13%
[2]; 3′, solvent Acetone, glazed tiles, Table 83
  % KD and Mortality: 3%
[2]; 3′, solvent Ethylacetate, glazed tiles, Table 83
  % KD and Mortality: 0%
[2]; 3′, solvent Methanol, glazed tiles, Table 83
  % KD and Mortality: 0%
[2]; 9′, in acetone on glazed tiles, Table 84
  % KD and Mortality: 0%
[2]; 9′, solvent 2006-009114 (EC formulation), glazed tiles, Table 83
  % KD and Mortality: 17%
[2]; 9′, solvent Acetone + 0.05% citric acid, glazed tiles, Table 83
  % KD and Mortality: 33%
[2]; 9′, solvent Acetone, glazed tiles, Table 83
  % KD and Mortality: 3%
[2]; 9′, solvent Ethylacetate, glazed tiles, Table 83
  % KD and Mortality: 3%
[2]; 9′, solvent Methanol, glazed tiles, Table 83
  % KD and Mortality: 0%
[2]; 15′, in acetone on glazed tiles, Table 84
  % KD and Mortality: 3%
[2]; 15′, solvent 2006-009114 (EC formulation), glazed tiles, Table 83
  % KD and Mortality: 23%
[2]; 15′, solvent Acetone + 0.05% citric acid, glazed tiles, Table 83
  % KD and Mortality: 70%
[2]; 15′, solvent Acetone, glazed tiles, Table 83
  % KD and Mortality: 3%
[2]; 15′, solvent Ethylacetate, glazed tiles, Table 83
  % KD and Mortality: 7%
[2]; 15′, solvent Methanol, glazed tiles, Table 83
  % KD and Mortality: 0%
[2]; 30′, in acetone on glazed tiles, Table 84
  % KD and Mortality: 17%
[2]; 30′, solvent 2006-009114 (EC formulation), glazed tiles, Table 83
  % KD and Mortality: 27%
[2]; 30′, solvent Acetone + 0.05% citric acid, glazed tiles, Table 83
  % KD and Mortality: 97%
[2]; 30′, solvent Acetone, glazed tiles, Table 83
  % KD and Mortality: 13%
[2]; 30′, solvent Ethylacetate, glazed tiles, Table 83
  % KD and Mortality: 27%
[2]; 30′, solvent Methanol, glazed tiles, Table 83
  % KD and Mortality: 13%
[2]; 1 h, in acetone on glazed tiles, Table 84
  % KD and Mortality: 50%
[2]; 1 h, solvent 2006-009114 (EC formulation), glazed tiles, Table 83
  % KD and Mortality: 43%
[2]; 1 h, solvent Acetone + 0.05% citric acid, glazed tiles, Table 83
  % KD and Mortality: 97%
[2]; 1 h, solvent Acetone, glazed tiles, Table 83
  % KD and Mortality: 77%
[2]; 1 h, solvent Ethylacetate, glazed tiles, Table 83
  % KD and Mortality: 50%
[2]; 1 h, solvent Methanol, glazed tiles, Table 83
  % KD and Mortality: 57%
[2]; 2 h, in acetone on glazed tiles, Table 84
  % KD and Mortality: 73%
[2]; 2 h, solvent 2006-009114 (EC formulation), glazed tiles, Table 83
  % KD and Mortality: 87%
[2]; 2 h, solvent Acetone + 0.05% citric acid, glazed tiles, Table 83
  % KD and Mortality: 97%
[2]; 2 h, solvent Acetone, glazed tiles, Table 83
  % KD and Mortality: 100%
[2]; 2 h, solvent Ethylacetate, glazed tiles, Table 83
  % KD and Mortality: 73%
[2]; 2 h, solvent Methanol, glazed tiles, Table 83
  % KD and Mortality: 73%
[2]; 3 h, in acetone on glazed tiles, Table 84
  % KD and Mortality: 80%
[2]; 3 h, solvent 2006-009114 (EC formulation), glazed tiles, Table 83
  % KD and Mortality: 93%
[2]; 3 h, solvent Acetone + 0.05% citric acid, glazed tiles, Table 83
  % KD and Mortality: 100%
[2]; 3 h, solvent Acetone, glazed tiles, Table 83
  % KD and Mortality: 100%
[2]; 3 h, solvent Ethylacetate, glazed tiles, Table 83
  % KD and Mortality: 70%
[2]; 3 h, solvent Methanol, glazed tiles, Table 83
  % KD and Mortality: 73%
[2]; 4 h, in acetone on glazed tiles, Table 84
  % KD and Mortality: 90%
[2]; 4 h, solvent 2006-009114 (EC formulation), glazed tiles, Table 83
  % KD and Mortality: 97%
[2]; 4 h, solvent Acetone + 0.05% citric acid, glazed tiles, Table 83
  % KD and Mortality: 100%
[2]; 4 h, solvent Acetone, glazed tiles, Table 83
  % KD and Mortality: 100%
[2]; 4 h, solvent Ethylacetate, glazed tiles, Table 83
  % KD and Mortality: 80%
[2]; 4 h, solvent Methanol, glazed tiles, Table 83
  % KD and Mortality: 73%
[2]; 24 h (mortality), in acetone on glazed tiles, Table 84
  % KD and Mortality: 100%
[2]; 24 h (mortality), solvent 2006-009114 (EC formulation), glazed tiles, Table 83
  % KD and Mortality: 97%
[2]; 24 h (mortality), solvent Acetone + 0.05% citric acid, glazed tiles, Table 83
  % KD and Mortality: 100%
[2]; 24 h (mortality), solvent Acetone, glazed tiles, Table 83
  % KD and Mortality: 100%
[2]; 24 h (mortality), solvent Ethylacetate, glazed tiles, Table 83
  % KD and Mortality: 80%
[2]; 24 h (mortality), solvent Methanol, glazed tiles, Table 83
  % KD and Mortality: 87%

From patent US9028856B2, “Synergistic pesticide compositions” (priority 2008, dated 2015)
